Test results taken from patent publication US7652029B2, “Therapeutic compound and treatments” (priority 2004, dated 2010).

Columns and labels:
KM12 = test: NCI multiple cell line test (SRB); assay type: cell-based, human; settings: KM12 (Colon Cancer), 48 h
MOLT-4 = test: NCI multiple cell line test (SRB); assay type: cell-based, human; settings: MOLT-4 (Leukemia), 48 h
[1] = Homo sapiens, read-out: −log10GI50 (converted)

In the case of `COC(=O)C1=C(C(=O)OC)SC2(S1)C(C(=O)OC)=C(C(=O)OC)SC1=C2c2cccc(OC)c2N(C(=O)CN2C(=O)CCC2=O)C1(C)C` [MT477], the IC50 (KM12; [1]) is reported as 2290 nM, the “−log10LC50” value (KM12) is reported as “* (effect not reached at maximum dose of 0.05 millimolar)” and the “−log10TGI” value (KM12) is reported as “* (effect not reached at maximum dose of 0.05 millimolar)”. The IC50 (MOLT-4; [1]) was 1020 nM, the “−log10LC50” value (MOLT-4) was 4.68 molar and the “−log10TGI” value (MOLT-4) was 5.64 molar.
